Test results as given in patent US12643847B2, “Treprostinil derivatives and compositions and uses thereof” (CORSAIR PHARMA, INC., priority 2015, dated 2026).

Legend:
[1] = Human plasma stability assay (Test 2); type: in vitro ADME; details: half-life in heparinated human plasma, 0.5 μM test compound, 37° C.; read-out: Test 2 T1/2
Description: (Test 2) Human plasma stability assay was conducted by incubating 0.5 μM test compound at 37° C. for up to 120 min in heparinated human plasma. At 0, 5, 15, 30, 60, 120 and […], an aliquot was taken and quenched with internal standard-containing stop solution. After incubation, the samples were analyzed by LC-MS/MS. Peak area ratios of analyte to internal standard were used to calculate the half-life.

[2] = Human skin homogenate stability assay (Test 3); type: in vitro ADME; details: half-life in human skin homogenate, 0.5 μM test compound, 37° C., up to 45 min, NADPH-generating system, pH 7.4; read-out: Test 3 T1/2
Description: At 0, 5, 15, 30 and 45 min, an aliquot was taken and quenched with internal standard-containing stop solution. No co-factor controls at 45 min were prepared. After incubation, the samples were analyzed by LC-MS/MS. Peak area ratios of analyte to internal standard were used to calculate the intrinsic clearance. The intrinsic clearance (CLin t) was determined from the first-order elimination constant by non-linear regression.

[3] = Human liver microsomal stability assay (Test 1); type: in vitro ADME; details: half-life in human liver microsomes, 0.5 μM test compound, 37° C., up to 45 min, NADPH-generating system, pH 7.4; read-out: Test 1 T1/2
Description: (Test 1) Human liver microsomal stability assay was conducted by incubating 0.5 μM test compound at 37° C. for up to 45 minutes in 50 mM potassium phosphate buffer (pH 7.4) containing 0.5 mg of microsomal protein and 50 μL of NADPH-generating system (7.8 mg of glucose 6-phosphate, 1.7 mg of NADPH and 6 U of glucose 6-phosphate dehydrogenase per mL in 2% w/v of sodium bicarbonate). At 0, 5, 15, 30 and 45 min, an aliquot was taken and quenched with internal standard-containing stop solution. No co-factor controls at 45 min were prepared. After incubation, the samples were analyzed by LC-MS/MS. Peak area ratios of analyte to internal standard were used to calculate the intrinsic clearance. The intrinsic clearance (CLint) was determined from the first-order elimination constant by non-linear regression.

[4] = tested on: PAH patients; details: inhaled form; cited from earlier work
[5] = treprostinil as the free acid, cited from earlier work

half-life at 0.5 μM [1] [h] | half-life at 0.5 μM [2] [h] | half-life at 0.5 μM [3] [h] | Compound | PAH patients who cannot take inhaled treprostinil due to irritation [4] | absolute oral bioavailability ([5]; oral) | systemic half-life ([5]; due to significant metabolism)
> 1 | > 1 | 0.517 to 1 | CCCCC[C@H](O)CC[C@@H]1[C@H]2Cc3cccc(OCC(=O)O[C@H](C)C(=O)O)c3C[C@H]2C[C@H]1O [II-2] | – | – | –
> 1 | > 1 | 0.517 to 1 | CCCCC[C@H](O)CC[C@@H]1[C@H]2Cc3cccc(OCC(=O)OCC(=O)O)c3C[C@H]2C[C@H]1O [II-1] | – | – | –

The remaining lines, values behind:

Compound | half-life at 0.5 μM [1] [h] | half-life at 0.5 μM [2] [h] | half-life at 0.5 μM [3] [h] | PAH patients who cannot take inhaled treprostinil due to irritation [4] | absolute oral bioavailability ([5]; oral) | systemic half-life ([5]; due to significant metabolism)
CCCCC[C@H](O)CC[C@@H]1[C@H]2Cc3cccc(OCC(=O)O)c3C[C@H]2C[C@H]1OC(=O)OC [Compound Ia-10, [1-(3-hydroxyoctyl)-2-methoxycarbonyloxy-2,3,3a,4,9,9a-hexahydro-1H-cyclopenta[b]naphthalen-5-yloxy]acetic acid] | > 1 | > 1 | < 0.25 | – | – | –
CCCCC[C@H](O)CC[C@@H]1[C@H]2Cc3cccc(OCC(=O)O)c3C[C@H]2C[C@H]1OC(=O)COCC [Ia-9] | > 1 | > 1 | < 0.25 | – | – | –
CCCCC[C@H](O)CC[C@@H]1[C@H]2Cc3cccc(OCC(=O)O)c3C[C@H]2C[C@H]1OC(=O)CC [Compound Ia-1] | > 1 | > 1 | < 0.25 | – | – | –
CCCCC[C@@H](CC[C@@H]1[C@H]2Cc3cccc(OCC(=O)O)c3C[C@H]2C[C@H]1O)OC(=O)COC [Compound Ib-8, {2-hydroxy-1-[3-(2-methoxyacetoxy)octyl]-2,3,3a,4,9,9a-hexahydro-1H-cyclopenta[b]naphthalen-5-yloxy}acetic acid] | > 1 | > 1 | < 0.25 | – | – | –
CCCCC[C@H](O)CC[C@@H]1[C@H]2Cc3cccc(OCC(=O)O)c3C[C@H]2C[C@H]1OC(=O)CCCC [Ia-3] | > 1 | > 1 | < 0.25 | – | – | –
CCCCCC(O)CCC1C(O)CC2Cc3c(cccc3OCC(=O)OCCC(=O)O)CC21 (stereo not drawn) [II-4, 3-{2-[2-hydroxy-1-(3-hydroxyoctyl)-2,3,3a,4,9,9a-hexahydro-1H-cyclopenta[b]naphthalen-5-yloxy]acetoxy}propionic acid] | > 1 | > 1 | 0.25 to 0.5 | – | – | –
CCCCC[C@H](O)CC[C@@H]1[C@H]2Cc3cccc(OCC(=O)O)c3C[C@H]2C[C@H]1O [Compound A, Treprostinil] | – | – | – | about 50% | less than 10% | very short
